Experimental data published in US10562878B2, “Cycloalkylamines as monoamine reuptake inhibitors” (Sunovion Pharmaceuticals Inc., priority 2006, dated 2020).
Like-named read-outs stand apart in the source and are kept apart here.

Legend:
[1] = target: DA Transporter (DAT) sites in mouse brain (Mus musculus (Mouse), UniProt Q61327); test: Ex vivo [3H] WIN 35428 binding to DAT sites in mouse brain after oral dosing; conditions: mice, 60 min after treatment; for receptor occupancy at 1 mg/kg / receptor occupancy at 3 mg/kg / receptor occupancy at 10 mg/kg / receptor occupancy at 30 mg/kg: mouse
[2] = target: human serotonin transporter (Homo sapiens (Human), UniProt P31645); test: Serotonin functional uptake assay, recombinant human transporter in HEK-293 cells; type: cell-based; conditions: Human serotonin transporter uptake; read-out: hSERT IC50
human serotonin transporter, sequence (P31645 whole entry): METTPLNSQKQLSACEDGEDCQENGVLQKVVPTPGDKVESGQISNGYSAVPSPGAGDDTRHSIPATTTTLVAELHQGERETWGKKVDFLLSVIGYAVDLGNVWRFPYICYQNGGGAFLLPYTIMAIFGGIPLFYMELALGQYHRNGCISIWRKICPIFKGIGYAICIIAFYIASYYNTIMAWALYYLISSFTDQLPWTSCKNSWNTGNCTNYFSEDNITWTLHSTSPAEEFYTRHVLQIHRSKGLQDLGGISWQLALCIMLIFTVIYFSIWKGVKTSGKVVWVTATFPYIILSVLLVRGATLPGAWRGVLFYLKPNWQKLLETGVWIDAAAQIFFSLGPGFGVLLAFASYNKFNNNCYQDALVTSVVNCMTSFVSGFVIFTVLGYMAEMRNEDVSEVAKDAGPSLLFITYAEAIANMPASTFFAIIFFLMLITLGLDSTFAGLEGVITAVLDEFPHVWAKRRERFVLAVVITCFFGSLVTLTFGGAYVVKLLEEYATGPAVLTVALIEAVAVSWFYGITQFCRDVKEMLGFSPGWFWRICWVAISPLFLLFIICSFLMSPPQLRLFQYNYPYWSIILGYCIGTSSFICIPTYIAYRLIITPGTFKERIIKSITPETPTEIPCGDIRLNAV

[3] = target: human dopamine transporter (Homo sapiens (Human), UniProt Q01959); test: Dopamine functional uptake assay, recombinant human transporter in CHO-K1 or HEK293 cells; type: cell-based; conditions: read-out: hDAT IC50
human dopamine transporter, sequence (Q01959 whole entry): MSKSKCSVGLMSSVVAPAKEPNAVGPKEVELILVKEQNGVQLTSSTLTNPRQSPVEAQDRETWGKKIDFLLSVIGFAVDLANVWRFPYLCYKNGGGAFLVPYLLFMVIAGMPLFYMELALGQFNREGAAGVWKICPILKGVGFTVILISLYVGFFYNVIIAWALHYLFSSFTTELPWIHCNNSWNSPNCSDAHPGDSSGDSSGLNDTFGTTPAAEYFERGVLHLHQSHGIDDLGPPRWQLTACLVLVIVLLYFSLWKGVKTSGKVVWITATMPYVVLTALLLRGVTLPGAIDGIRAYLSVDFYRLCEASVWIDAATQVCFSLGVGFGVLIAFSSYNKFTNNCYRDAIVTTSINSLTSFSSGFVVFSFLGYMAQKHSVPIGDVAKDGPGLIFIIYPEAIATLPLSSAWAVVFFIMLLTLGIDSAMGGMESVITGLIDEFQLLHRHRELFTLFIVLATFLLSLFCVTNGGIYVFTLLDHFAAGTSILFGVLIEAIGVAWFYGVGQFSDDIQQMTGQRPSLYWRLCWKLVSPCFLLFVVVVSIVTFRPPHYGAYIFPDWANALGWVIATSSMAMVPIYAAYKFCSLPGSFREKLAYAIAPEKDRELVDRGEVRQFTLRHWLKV

mice [4] = test: Mouse tail suspension test; type: in vivo
[5] = target: T1, Norepinephrine Transporter (NET) sites in mouse brain (Mus musculus (Mouse), UniProt O55192); test: in vivo; conditions: po, read-out: NET % Transporter Occupancy
[6] = target: 5-HT Transporter (SERT) sites in mouse brain (Mus musculus (Mouse), UniProt Q60857); test: Ex vivo [3H] citalopram binding to SERT sites in mouse brain after oral dosing; conditions: mice, 60 min after treatment; for receptor occupancy at 1 mg/kg / receptor occupancy at 3 mg/kg / receptor occupancy at 10 mg/kg / receptor occupancy at 30 mg/kg: mouse
Rats = test: Rat forced swim test; type: in vivo
[7] = target: T1, Norepinephrine Transporter (NET) sites in mouse brain; conditions: mice, 60 min after treatment
mice [8] = test: Mouse locomotor activity; type: in vivo
[9] = target: rat dopamine reuptake transporter (Rattus norvegicus (Rat), UniProt P23977); test: Dopamine functional uptake assay, rat striatal synaptosomes; type: biochemical; conditions: read-out: rDAT IC50
[10] = target: rat serotonin (5-HT) reuptake transporter (Rattus norvegicus (Rat), UniProt P31652); test: Serotonin functional uptake assay, rat synaptosomes; type: biochemical; conditions: read-out: rSERT IC50

Row | Structure (SMILES) | DAT Mean Specific Binding ± S.E.M. ([1]; 1 mg/kg PO) | DAT Mean Specific Binding ± S.E.M. ([1]; 3 mg/kg PO) | DAT Mean Specific Binding ± S.E.M. ([1]; 30 mg/kg PO) | receptor occupancy at 1 mg/kg ([1]; 1 mg/kg PO) | receptor occupancy at 3 mg/kg ([1]; 3 mg/kg PO) | receptor occupancy at 10 mg/kg ([1]; 10 mg/kg PO) | receptor occupancy at 30 mg/kg ([1]; 30 mg/kg PO) | IC50 [3] | Mouse Tail Suspension Mean Immobility Time ± S.E.M. (mice [4]; 10 mg/kg PO) | Mouse Tail Suspension Mean Immobility Time ± S.E.M. (mice [4]; 30 mg/kg PO) | receptor occupancy at 1 mg/kg [5] | receptor occupancy at 3 mg/kg [5] | receptor occupancy at 10 mg/kg [5] | receptor occupancy at 30 mg/kg [5] | SERT Mean Specific Binding ± S.E.M. ([6]; 1 mg/kg PO) | SERT Mean Specific Binding ± S.E.M. ([6]; 3 mg/kg PO) | SERT Mean Specific Binding ± S.E.M. ([6]; 10 mg/kg PO) | SERT Mean Specific Binding ± S.E.M. ([6]; 30 mg/kg PO) | receptor occupancy at 1 mg/kg ([6]; 1 mg/kg PO) | receptor occupancy at 3 mg/kg ([6]; 3 mg/kg PO) | other results
1 | CN(C)C[C@]1(c2ccc(Cl)c(Cl)c2)CCCC[C@H]1O (relative stereo) [153 E2, trans-2-(3,4-dichlorophenyl)-2-((dimethylamino)methyl)cyclohexanol] | 22774 ± 916 dpm | 24159 ± 1313 dpm | 16194 ± 1293 dpm | -10% | -16% | -6% | 22% | 25 nM | 170.2 ± 6.3 | 154.5 ± 8.4 | 6% | 10% | 9% | 40% | 3271 ± 199 dpm | 2968 ± 100 dpm | 2327 ± 150 dpm | 1359 ± 89 dpm | -1% | 8% | IC50 [2]: 64 nM; receptor occupancy at 10 mg/kg ([6]; 10 mg/kg PO): 28%; receptor occupancy at 30 mg/kg ([6]; 30 mg/kg PO): 58%; Rat Forced Swim Climbing (Means ± S.E.M.) (Rats; 3 mg/kg PO): 8.8 ± 1.5; Rat Forced Swim Immobility (Means ± S.E.M.) (Rats; 3 mg/kg PO): 49.9 ± 1.7; Rat Forced Swim Swimming (Means ± S.E.M.) (Rats; 3 mg/kg PO): 1.9 ± 0.8; Rat Forced Swim Climbing (Means ± S.E.M.) (Rats; 10 mg/kg PO): 11.7 ± 1.8; Rat Forced Swim Immobility (Means ± S.E.M.) (Rats; 10 mg/kg PO): 44.0 ± 2.1; Rat Forced Swim Swimming (Means ± S.E.M.) (Rats; 10 mg/kg PO): 4.3 ± 1.1; Rat Forced Swim Climbing (Means ± S.E.M.) (Rats; 30 mg/kg PO): 22.2 ± 5.2; Rat Forced Swim Immobility (Means ± S.E.M.) (Rats; 30 mg/kg PO): 31.3 ± 6.7; Rat Forced Swim Swimming (Means ± S.E.M.) (Rats; 30 mg/kg PO): 4.6 ± 1.3; NET Mean Specific Binding ± S.E.M. ([7]; 1 mg/kg PO): 1804 ± 79 dpm; NET Mean Specific Binding ± S.E.M. ([7]; 3 mg/kg PO): 1726 ± 44 dpm; NET Mean Specific Binding ± S.E.M. ([7]; 10 mg/kg PO): 1734 ± 62 dpm; NET Mean Specific Binding ± S.E.M. ([7]; 30 mg/kg PO): 1140 ± 53 dpm
2 | CN(C)C[C@]1(c2ccc3ccccc3c2)CCCC[C@H]1O (relative stereo) [164 E1, trans-2-((dimethylamino)methyl)-2-(naphthalen-2-yl)cyclohexanol] | 23574 ± 1313 dpm | 18002 ± 1516 dpm | 15630 ± 1085 dpm | -11% | 16% | 17% | 27% |  | 162.1 ± 4.6 | 155.3 ± 7.8 | -8% | -1% | 13% | 41% | 2796 ± 133 dpm | 2273 ± 74 dpm | 783 ± 61 dpm | 271 ± 50 dpm | 20% | 35% | DAT Mean Specific Binding ± S.E.M. ([1]; 10 mg/kg PO): 17727 ± 2871 dpm; Mouse Locomotor Activity Total Distance Traveled ± S.E.M. (mice [8]; 10 mg/kg PO): 210.3 ± 40.4; receptor occupancy at 10 mg/kg ([6]; 10 mg/kg PO): 78%; receptor occupancy at 30 mg/kg ([6]; 30 mg/kg PO): 92%; NET Mean Specific Binding ± S.E.M. ([7]; 1 mg/kg PO): 1122 ± 58 dpm; NET Mean Specific Binding ± S.E.M. ([7]; 3 mg/kg PO): 1046 ± 23 dpm; NET Mean Specific Binding ± S.E.M. ([7]; 10 mg/kg PO): 903 ± 48 dpm; NET Mean Specific Binding ± S.E.M. ([7]; 30 mg/kg PO): 610 ± 59 dpm
3 | CCC(N)C1(c2ccc(Cl)c(Cl)c2)CCCCC1 (single isomer, unassigned) [17 E1, 1-(1-(3,4-dichlorophenyl)cyclohexyl)propan-1-amine] |  |  |  |  |  |  |  |  | 182.6 ± 4.1 | 150.9 ± 7.8 |  |  |  |  |  |  |  |  |  |  | Mouse Locomotor Activity Total Distance Traveled ± S.E.M. (mice [8]; 3 mg/kg PO): 649.3 ± 78.4; Mouse Locomotor Activity Total Distance Traveled ± S.E.M. (mice [8]; 10 mg/kg PO): 478.3 ± 88.5; Mouse Locomotor Activity Total Distance Traveled ± S.E.M. (mice [8]; 30 mg/kg PO): 428.3 ± 120.6; Mouse Tail Suspension Mean Immobility Time ± S.E.M. (mice [4]; 3 mg/kg PO): 184.7 ± 9.0
4 | CNC(C)C1(c2ccc(Cl)c(Cl)c2)CCCCC1 (single isomer, unassigned) [44 E1, 1-(1-(3,4-dichlorophenyl)cyclohexyl)-N-methylethanamine] |  |  |  |  |  |  |  |  |  | 120.4 ± 9.0 |  |  |  |  |  |  |  |  |  |  | Mouse Locomotor Activity Total Distance Traveled ± S.E.M. (mice [8]; 30 mg/kg PO): 402.3 ± 71.0
5 | CN(C)C[C@]1(c2ccc(Cl)c(Cl)c2)CCC[C@H](O)C1 (single isomer, unassigned) [190 E2, Cis-3-(3,4-dichlorophenyl)-3-((dimethylamino)methyl)cyclohexanol] |  |  |  |  |  |  |  | 3 nM |  |  |  |  |  |  |  |  |  |  |  |  | IC50 [9]: 45 nM; IC50 [10]: 120 nM
